Assay results from US6537998B1, “Gonadotropin-releasing hormone receptor antagonists and methods relating thereto” (Neurocrine Biosciences, Inc., priority 1999, dated 2003).

target: T1, GnRH receptor (Homo sapiens, UniProt P30968); experiment: GnRH Receptor Membrane Binding Assay; details: calculated from IC50 for displacement of radiolabeled ligand ([125I]-labeled GnRH peptide) from the GnRH receptor, Cheng-Prusoff
T1 construct: expressed in transfected cells
T1 sequence (P30968 1-328): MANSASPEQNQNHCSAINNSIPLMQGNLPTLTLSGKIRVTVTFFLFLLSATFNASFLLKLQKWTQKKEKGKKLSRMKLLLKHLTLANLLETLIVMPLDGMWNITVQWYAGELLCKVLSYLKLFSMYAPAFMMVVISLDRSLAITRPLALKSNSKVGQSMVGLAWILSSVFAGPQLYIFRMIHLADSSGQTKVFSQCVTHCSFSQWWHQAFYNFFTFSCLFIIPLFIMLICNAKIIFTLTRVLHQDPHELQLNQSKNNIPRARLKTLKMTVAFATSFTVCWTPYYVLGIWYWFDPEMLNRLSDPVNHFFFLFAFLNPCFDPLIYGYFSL
Description: Activity of GnRH receptor antagonists are typically calculated from the IC50 as the concentration of a compound necessary to displace 50% of the radiolabeled ligand from the GnRH receptor, and is reported as a “Ki” value calculated by the following equation: [formula]
where L=radioligand and KD=affinity of radioligand for receptor (Cheng and Prusoff, Biochem. Pharmacol. 22:3099, 1973). GnRH receptor antagonists of this invention have a Ki of 100 μM or less. In a preferred embodiment of this invention, the GnRH receptor antagonists have a Ki of less than 10 μM, and more preferably less than 1 μM. More preferred compounds include: 1-1, 1-2-5, 12, 13-15, 19, 21, 27, 31, 32, 34, 37, 55, 58, 64, 73, 2B, 2D, 3A, 3B, 3D, 4A, 4B, 4C, 4D, 4G, 4H, 5A and 5B (see Examples below).
Radio-iodination of GnRH Peptide
The GnRH analog is labeled by the chloramine-T method. To 10 μg of peptide in 20 μl of 0.5M sodium phosphate buffer, pH 7.6, is added 1 mCi of Na125I, followed by 22.5 μg chloramine-T and the mixture vortexed for 20 sec. The reaction is stopped by the addition of 60 μg sodium metabisulfite and the free iodine is removed by passing the iodinated mixture through a C-8 Sep-Pak cartridge (Millipore Corp., Milford, Mass.). The peptide is eluted with a small volume of 80% acetonitrile/water. The recovered labeled peptide is further purified by reverse phase HPLC on a Vydac C-18 analytical column (The Separations Group, Hesperia, Calif.) on a Beckman 334 gradient HPLC system using a gradient of acetonitrile in 0.1% TFA. The purified radioactive peptide is stored in 0.1% BSA/20% acetonitrile/0.1% TFA at […] and can be used for up to 4 weeks.
GnRH Receptor Membrane Binding Assay
Cells stably, or transiently, transfected with GnRH receptor expression vectors are harvested, resuspended in 5% sucrose and homogenized using a polytron homogenizer (2×15 sec). Nuclei are removed by centrifugation (3000×g for 5 min.), and the supernatant centrifuged (20,000×g for 30 min, 4° C.) to collect the membrane fraction. The final membrane preparation is resuspended in binding buffer (10 mM Hepes (pH 7.5), 150 mM NaCl, and 0.1% BSA) and stored at −70° C. Binding reactions are performed in a Millipore MultiScreen 96-well filtration plate assembly with polyethylenimine coated GF/C membranes. The reaction is initiated by adding membranes (40 ug protein in 130 ul binding buffer) to 50 ul of [^125I]-labeled GnRH peptide (˜100,000 cpm), and 20 ul of competitor at varying concentrations. The reaction is terminated after 90 minutes by application of vacuum and washing (2×) with phosphate buffered saline. Bound radioactivity is measured using 96-well scintillation counting (Packard Topcount) or by removing the filters from the plate and direct gamma counting. Ki values are calculated from competition binding data using non-linear least squares regression using the Prism software package (GraphPad Software).

| Ki [nM] | SMILES |
| --- | --- |
| < 1000 | COC(=O)C(C)(C)c1nc2n(Cc3ccccc3F)c(C)c(-c3cccc(OC)c3)c(=O)n2c1CN(C)Cc1ccccc1 [Example 4A, 2-(1-methoxycarbonyl-1-methylethyl)-3-(N-methyl-N-benzylaminomethyl)-5-(3-methoxyphenyl)-6-methyl-7-(2-flurorbenzyl)imidazolo[1,2-a]pyrimid-4-one] |
| < 1000 | CCN(CC)CCN(C)Cc1c(C(C)(C)C)nc2n(Cc3ccccc3F)c(C)c(-c3ccc4c(c3)OCO4)c(=O)n12 [Example 1-73] |
| < 1000 | COc1cccc(-c2c(C)n(Cc3ccccc3F)c3nc(C4(C)CCOC4=O)c(CN(C)Cc4ccccc4)n3c2=O)c1 (stereo not shown) [Example 1-21] |
| < 1000 | Cc1c(-c2ccccc2F)c(=O)n2c(CN(C)CCc3ccccn3)c(C(C)(C)C)nc2n1Cc1ccccc1F [Example 1-55] |
| < 1000 | COC(=O)C(C)(C)c1nc2n(Cc3ccccc3F)c(C)c(-c3cccc(OC)c3)c(=O)n2c1CNCc1ccccn1 [Example 4G] |
| < 1000 | CCOC(=O)Cc1nc2n(Cc3ccccc3F)c(C)c(-c3cccc(OC)c3)c(=O)n2c1CN(C)CCc1ccccn1 [Example 5A, 2-Ethoxycarbonylmethyl-3-{N-methyl-N-[2-(2-pyridyl)ethyl]aminomethyl}-5-(3-methoxyphenyl)-6-methyl-7-(2-fluorobenzyl)imidazolo[1,2-a]pyrimid-4-one] |
| < 1000 | COc1cccc(-c2c(C)n(Cc3ccccc3F)c3nc(C4(C)CCOC4=O)c(CN(C)Cc4ccco4)n3c2=O)c1 (stereo not shown) [Example 1-27] |
| < 1000 | CC(=O)c1cccc(-c2c(C)n(Cc3ccccc3F)c3nc(C(C)(C)C)c(CN(C)Cc4ccccc4)n3c2=O)c1 [Example 1-31] |
| < 1000 | Cc1c(-c2ccccc2)c(=O)n2c(CN(C)Cc3ccco3)c(C(C)(C)C)nc2n1Cc1ccccc1F [Example 1-19] |
| < 1000 | COc1cccc(-c2c(C)n(Cc3ccccc3F)c3nc(C(C)(C)C)c(CN(C)Cc4ccccn4)n3c2=O)c1 [Example 1-12] |
| < 1000 | COc1cccc(-c2c(C)n(Cc3ccccc3F)c3nc(C(C)(C)C)c(CN(C)[C@H](C)c4ccccc4)n3c2=O)c1 [Example 1-37] |
| < 1000 | CCOC(=O)Cc1nc2n(Cc3ccccc3F)c(C)c(-c3cccc(OC)c3)c(=O)n2c1CN(C)Cc1ccccc1 [Example 5B, 2-ethoxycarbonylmethyl-3-{N-methyl-N-benzyl)-5-(3-methoxyphenyl)-6-methyl-7-(2-fluorobenzyl)imidazolo[1,2-a]pyrimid-4-one] |
| < 1000 | CC(=O)c1cccc(-c2c(C)n(Cc3ccccc3F)c3nc(C(C)(C)C)c(CN(C)CCc4ccccn4)n3c2=O)c1 [Example 1-32] |
| < 1000 | COc1cccc(-c2c(C)n(Cc3ccccc3F)c3nc(C(C)(C)C)c(CN(C)CCc4ccccn4)n3c2=O)c1 [Example 1-1, 2-(tert-butyl)-3-[N-methyl-N-(2-pyridylethyl)aminomethyl]-5-(3-methoxyphenyl)-6-methyl-7-(2-fluorobenzyl)immidazolo[1,2-a]pyrimid-4-one] |
| < 1000 | COC(=O)C(C)(C)c1nc2n(Cc3ccccc3F)c(C)c(-c3cccc(OC)c3F)c(=O)n2c1CN(C)CCc1ccccn1 [Example 4H] |
| < 1000 | COC(=O)C(C)(C)c1nc2n(Cc3ccccc3F)c(C)c(-c3cccc(OC)c3)c(=O)n2c1CN(C)Cc1ccco1 [Example 4D] |
